Assay in all cases: growth of human tumour cells (NCI), 48 h
The test system of test [1] is DU-145.
Test [2] deals with KM12.
Test [3] deals with SW-620.
Test [4] concerns T47D.
For test [5], the system named is BT-549.
In test [6] the test system is IGROV-1.
For test [7], the system named is OVCAR-4.
Test [8] has as its system CCRF-CEM.
In test [9] the test system is SF-295.
Test [10] concerns HT-29.
Test [11] has as its system M14.
For test [12], the system named is SF-268.
Test [13] has as its system UO-31.
The subject of test [14] is NCI-H226.
The subject of test [15] is U-251.
Test [16] relates to SN12C.
Test [17] relates to SNB-19.
The test system of test [18] is A498.
Test [19] concerns SK-OV-3.
Test [20] concerns Malme-3M.

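All cell lines were grown in 96-well plates and treated with compound for 48 hours. GI50 = concentration required for 50% inhibition of growth.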 Activity calls are given as the source filed them. Cut-off read from the data, not from the text of the source: active = GI50 up to about 1.1 µM and inactive = higher.

Regarding `CCN(CC)c1ccc2cc(-c3nc4ccccc4n3C)c(=O)oc2c1`, the GI50 is 0.306 µM (active) in test [1]; 0.571 µM (active) in [2]; 0.163 µM (active) in [3]; > 100 µM (inactive) in test [4]; 0.274 µM (active) in test [5]; 0.485 µM (active) in test [6]. In addition, the GI50 in test [7] was > 100 µM (inactive); in [8], 0.154 µM (active); in test [9] it was 0.285 µM (active); in test [10] it was 0.259 µM (active); in [11], 0.355 µM (active); in [12], 2.05 µM (inactive). The GI50 is 3.52 µM (inactive) in [13]; 0.302 µM (active) in test [14]; 0.352 µM (active) in [15]; 0.713 µM (active) in test [16]; 0.408 µM (active) in test [17]; 0.0163 µM (active) in test [18]. Further, the GI50 in test [19] was 0.33 µM (active).
On to `CCOC(=O)c1c(C)[n+]([O-])c2cc(Cl)c(Cl)cc2[n+]1[O-]`, for which the GI50 was 16.6 µM (inactive) in [1]; 7.89 µM (inactive) in [2]; 16 µM (inactive) in [4]; 19.8 µM (inactive) in test [5]; 7.6 µM (inactive) in [6]; 17.5 µM (inactive) in test [7]. Also, the GI50 in [8] is 18.5 µM (inactive); in [9] it was 29.4 µM (inactive); in test [10] it was 33.5 µM (inactive); in [11] it was 23.1 µM (inactive); in [12] it was 24.5 µM (inactive); in [13], 24.5 µM (inactive). Besides, the GI50 was 12 µM (inactive) in [14]; 32.1 µM (inactive) in [15]; 20.4 µM (inactive) in test [16]; 36.8 µM (inactive) in test [17]; 20.3 µM (inactive) in [18]; 26.7 µM (inactive) in test [19].
With `Oc1c(Br)cc(/C=C/c2ccnc(/C=C/c3cc(Br)c(O)c(Br)c3)c2)cc1Br`, the GI50 in test [1] is 20.4 µM (inactive); in test [2], 19.1 µM (inactive); in [3], 35.6 µM (inactive); in [4], 16.7 µM (inactive); in test [5], 33.4 µM (inactive); in test [6], 32.4 µM (inactive). In addition, the GI50 was 30.3 µM (inactive) in test [7]; 22.6 µM (inactive) in test [8]; 27.5 µM (inactive) in test [9]; 21.7 µM (inactive) in test [10]; 25.1 µM (inactive) in test [11]; 40.3 µM (inactive) in test [12]. In addition, the GI50 in test [13] is 19.2 µM (inactive); in test [15], 15.2 µM (inactive); in [16], 51.3 µM (inactive); in test [17], 35.8 µM (inactive); in test [18], 18.9 µM (inactive); in test [19] it was 34.2 µM (inactive).
Turning to `CCOC(=O)C1=c2[nH]c3cccc4cccc(c43)n2C=C(C(C)=O)C1CC(C)=O` (configuration not stated), the GI50 in test [1] is > 100 µM (inactive); in test [2], > 100 µM (inactive); in test [3], 40.6 µM (inactive); in [4], 34 µM (inactive); in test [5] it was > 100 µM (inactive); in [6] it was > 100 µM (inactive). The GI50 was > 100 µM (inactive) in test [7]; 19.9 µM (inactive) in test [8]; > 100 µM (inactive) in test [9]; > 100 µM (inactive) in test [11]; 37.4 µM (inactive) in test [13]; > 100 µM (inactive) in test [15]. Moreover, the GI50 in test [16] is > 100 µM (inactive); in [17], 55.2 µM (inactive); in [18] it was 86.1 µM (inactive); in test [19], 6.4 µM (inactive).
With `COC(=O)C(=O)c1cc2ccccc2n1S(=O)(=O)c1ccccc1`, the GI50 in test [1], in [2], in [3], in [4], in test [5] and in [6] was > 100 µM (inactive) in each case. The GI50 in test [20], in test [7], in test [8], in [9], in test [10] and in test [11] was > 100 µM (inactive) each time. For the same compound, the GI50 in test [12], in test [13], in [15], in test [16], in test [17] and in [18] was > 100 µM (inactive) throughout. The GI50 in [19] is > 100 µM (inactive).
Regarding `CSC1=N/C(=C\c2ccc(C)cc2)C(=O)N1`, the GI50 was > 100 µM (inactive) in test [1]; > 100 µM (inactive) in test [2]; > 100 µM (inactive) in test [3]; 25.2 µM (inactive) in test [4]; 37.8 µM (inactive) in test [5]; > 100 µM (inactive) in [6]. The GI50 was > 100 µM (inactive) in [20]; > 100 µM (inactive) in test [7]; 92.5 µM (inactive) in [8]; 65 µM (inactive) in [9]; > 100 µM (inactive) in test [10]; > 100 µM (inactive) in test [11]. Besides, the GI50 in [12] was 59.6 µM (inactive); in test [13], 47.8 µM (inactive); in test [14], > 100 µM (inactive); in test [15] it was 65.3 µM (inactive); in [16], > 100 µM (inactive); in test [17] it was 58.7 µM (inactive). For the same compound, the GI50 in [19] was > 100 µM (inactive).
For `Cc1cnc(-c2c[nH]c3ccccc23)nc1-c1c[nH]c2ccccc12`, the GI50 was 6.73 µM (inactive) in test [1]; 3.78 µM (inactive) in test [2]; 11.5 µM (inactive) in test [3]; 1.75 µM (inactive) in [4]; 19 µM (inactive) in test [5]; 1.14 µM (inactive) in test [6]. Also, the GI50 is 5.2 µM (inactive) in test [7]; 1.52 µM (inactive) in test [8]; 3.29 µM (inactive) in test [9]; 4.18 µM (inactive) in [10]; 4.32 µM (inactive) in test [11]; 15.9 µM (inactive) in test [12]. Further, the GI50 was 6.97 µM (inactive) in [13]; 6.46 µM (inactive) in test [15]; 1.68 µM (inactive) in test [16]; 7.89 µM (inactive) in [17]; 2.6 µM (inactive) in [18]; 11.2 µM (inactive) in test [19].
`N#Cc1nc2cc(Cl)ccc2nc1N1CCN(c2ccc([N+](=O)[O-])cc2)CC1`: the GI50 in [1], in test [2], in [3], in test [4], in test [5] and in test [7] was > 100 µM (inactive) each time. For the same compound, the GI50 in test [9], in test [10], in test [11], in test [12], in test [13] and in test [15] was > 100 µM (inactive) throughout. For the same compound, the GI50 in test [16], in test [17], in test [18] and in test [19] was > 100 µM (inactive) in each case.
With `CN1CCc2cc3c(c4c2C1C(O)c1ccccc1-4)OCO3` (configuration not stated), the GI50 in test [1] was 9.73 µM (inactive); in test [2] it was 7.52 µM (inactive); in test [3], 7.53 µM (inactive); in [4], 13 µM (inactive); in [5], 3.86 µM (inactive); in test [6] it was 6.61 µM (inactive). Besides, the GI50 in [20] is 8 µM (inactive); in test [7], 6.04 µM (inactive); in [8], 2.41 µM (inactive); in test [9], 5.69 µM (inactive); in [10] it was 3.5 µM (inactive); in test [11], 5.12 µM (inactive). Further, the GI50 in test [12] was 6.3 µM (inactive); in test [13], 6.1 µM (inactive); in [15], 6.07 µM (inactive); in test [16], 3.03 µM (inactive); in test [17], 10.6 µM (inactive); in [18] it was 3.27 µM (inactive). For the same compound, the GI50 in test [19] is 21.4 µM (inactive).
In the case of `Cc1ccc(Cc2nn(C)c(=O)n2N)cc1`, the GI50 in test [1], in [2], in [3], in test [4], in [5] and in [6] was > 100 µM (inactive) in each case. The GI50 in [7], in test [9], in [10], in test [11], in test [13] and in test [14] was > 100 µM (inactive) in each case. Besides, the GI50 in test [15], in test [16], in [17], in test [18] and in test [19] was > 100 µM (inactive) in each case.
With `O=C1CCCCC/C1=C\c1cccc(F)c1`, the GI50 in [1] is > 100 µM (inactive); in [2], 59.2 µM (inactive); in [3], 83.8 µM (inactive); in test [4], > 100 µM (inactive); in test [5], 51.9 µM (inactive); in [6], 58.9 µM (inactive). For the same compound, the GI50 in test [20] was > 100 µM (inactive); in [8], 24.3 µM (inactive); in [9], > 100 µM (inactive); in test [10], 60.5 µM (inactive); in test [11] it was 43.4 µM (inactive); in test [12] it was 82.4 µM (inactive). Moreover, the GI50 is 57.7 µM (inactive) in [13]; 48.1 µM (inactive) in test [15]; > 100 µM (inactive) in test [16]; > 100 µM (inactive) in [17]; > 100 µM (inactive) in test [18]; > 100 µM (inactive) in test [19].
